Data from PubChem BioAssay AID720625 (Broad Institute, 2013).
Inconclusive results are not listed.

Test system: HRAS cells, caspase 3/7 apoptosis luminescence, multiple timepoints
Experiment: time-course apoptosis signal, HRAS cell line – caspase 3/7 luminescence, plate reader, dry powder, mechanism study for HRAS target identification (AID 720625)

Structure (SMILES): COc1ccc(N(C(=O)CCl)C(C(=O)NCCc2ccccc2)c2cccs2)cc1Cl (centres undefined)
- AC40: 7.66 µM
- AC40 (measured here: timepoint 1): 22.2 µM
- AC40 (measured here: timepoint 2): 0.177 µM
- AC40 (measured here: timepoint 3): 0.551 µM
